Experimental data as given in paper PMC12693396, “Discovery of Influenza Neuraminidase Inhibitors: Structure-Based Virtual Screening and Biological Evaluation of Novel Chemotypes” (Molecules, 2025).

Experiments:
[1] = in vitro; conditions: human
[2] = target: recombinant Influenza A H1N1 (A/California/04/2009) neuraminidase (Influenza A virus (A/California/04/2009(H1N1)), UniProt C3W5S3); test: Fluorometric MUNANA neuraminidase inhibition assay (NA-Fluor kit); assay type: biochemical

Structure (SMILES)	CC50 at 24 h [1]	also measured
COc1ccc([C@H]2[C@@H](C(=O)O)c3ccccc3C(=O)N2Cc2ccc(Cl)cc2)cc1 [Compound 5, (3R,4S)-2-[(4-Chlorophenyl)methyl]-1,2,3,4-tetrahydro-3-(4-methoxyphenyl)-1-oxo-4-isoquinolinecarboxylic acid]	152 µM	
O=C(O)C1CCCN(C(=O)c2c[nH]c3ccccc23)C1 (stereo not shown) [Compound 1, 1-(1H-Indol-3-ylcarbonyl)-3-piperidinecarboxylic acid]		IC50 [2]: > 1000 µM; inhibition at 100 µM ([2]; read-out: mean inhibition of NA activity, at 100 µM): > 15%
COc1cccc2[nH]cc(C(=O)O)c12 [Compound 4, 4-Methoxy-1H-indole-3-carboxylic acid]	244 µM	
O=C(O)CCC(=O)c1c[nH]c2ccccc12 [Compound 3, γ-Oxo-1H-indole-3-butanoic acid]	671 µM	
COc1cc2c(cc1OC)C(C(C)C)N(S(N)(=O)=O)CC2 (stereo not shown) [Compound 6, 3,4-Dihydro-6,7-dimethoxy-1-(1-methylethyl)-2(1H)-isoquinolinesulfonamide]	534 µM	
CCOC(=O)C1=C[C@@H](OC(CC)CC)[C@H](NC(C)=O)[C@@H](N)C1 [oseltamivir, Oseltamivir phosphate, reference compound]		inhibition of NA activity ([2]; 0.1 µM): approximately 20%
